Experimental data: patent US10441568B2, “Nitroxide radicals for the treatment of diseases of the respiratory tract” (priority 2015, dated 2019)

Experiments:
[1] = tested on: ovalbumin-induced murine model of asthma; test: Lung resistance / airway hyper-responsiveness to methacholine in OVA asthma model; type: in vivo, BALB/c mice; conditions: oral
Method: (§1) All experimental procedures were carried out in accordance with the NIH Guidelines for the Care and Use of Laboratory Animals. Specific pathogen-free (SPF) male BALB/c mice (6-7 weeks of age, 18-22 grams), routinely screened serologically for relevant respiratory pathogens, were maintained in an animal housing facility for 1 week before use and given access to food and water ad libitum. Animals were randomly assigned to the indicated experimental groups, and sensitized with two intraperitoneal (IP) injections (20 μg ovalbumin (OVA) emulsified in 2 mg aluminum hydroxide (an adjuvant) in 200 μl phosphate buffer saline (PBS), pH 7.4), on days 1 and 10.
(§2) After another week, the animals were challenged by exposure to ovalbumin (OVA) aerosol (1%, w/v, in PBS) for 30 minutes each day on days 17, 18 and 19, in order to elicit an inflammatory reaction in the lungs characterized by airway hyper-responsiveness (AHR), an influx of inflammatory cells (particularly eosinophils), and increased pulmonary levels of various cytokines and transforming growth factors, protein nitration and lipid peroxidation.
(§3) The features of allergic inflammation typically reached their peak a day or two after the final exposure. Mice were then subjected to one of the following treatments: (i) sham-sensitization plus challenge with PBS; (ii) positive control-sensitization plus challenge with OVA; (iii) sensitization plus challenge with OVA and various indicated treatments (e.g., with nitroxide or dexamethasone), including different modes (oral, IP, intranasal, inhalation), time windows (sensitization stage, challenge stage, both stages and after the last challenge), and doses of nitroxide administration.
One day after the final challenge, respiratory activity and airway hyper-responsiveness (AHR) of experimental animals were evaluated. Whole body plethysmographs for enhanced pause (Penh) measurements are often used for assessment of AHR. However, critics have questioned the validity of Penh measurements, which supposedly measure airway obstruction of live non-sedated mice, stating that it is likely to measure the distress of the animal rather than actual obstruction. […] In brief, mice were sedated with an intraperitoneal (IP) injection of xylazine hydrochloride and anaesthetized with IP injection of pentobarbital. Subsequently, the animals were tracheostomized using an 18 gauge cannula, ventilated with a FlexiVent™ apparatus (SCIREQ), and muscle paralysis was induced with pancuronium bromide. The mice were ventilated in a quasi-sinusoidal fashion with the following settings: a tidal volume of 10 ml/kg, maximum inflation pressure of […] (30 cm H2O), a positive end expiratory pressure (PEEP) of 3 millibar and a frequency of 150 per minute. Following an equilibration period of 3 minutes of tidal ventilation, two lung inflations to a transrespiratory pressure of 2.5 millibar were performed and baseline measurements were taken. Airway hyper-responsiveness (AHR) was determined by aerosolizing increasing concentrations of methacholine. After baseline determination of airway resistance, mice were challenged with 0 to 64 mg/mL methacholine nebulized directly into the ventilatory circuit using an AeroNeb™ Lab nebulizer system (SCIREQ). Two models of respiratory mechanics were used to assess lung resistance: a linear 1st-order single compartment model and a constant-phase model. All data points were collected with FlexiVent™ software (SCIREQ). […]

[2] = tested on: ovalbumin-induced murine model of asthma; test: Inflammatory cell counts in BAL fluid in OVA asthma model; type: in vivo, BALB/c mice
Method: as §1, §2, §3
(§4) Bronchoalveolar lavage (BAL) fluid (also referred to herein as “BALf”) and bronchial submucosal inflammation are characteristic features of asthma. Mice were euthanized with an overdose of 50 mg/kg pentobarbital and ice-cold phosphate buffer saline (PBS) (0.6 ml) was instilled into the lungs. BAL fluid was obtained by three aspirations via tracheal cannulation, centrifuged, and the supernatant collected and stored at −70° C. Cell pellets were re-suspended in PBS and 100 μl aliquots placed onto slides and centrifuged (200 g, 4° C., 10 minutes) in a cytospin machine. Induction of oxidative stress was evaluated using a 2′,7′-dichlorofluorescein fluorescence assay, and total IgE, IgG2a, panel of cytokines, transforming growth factors, collagen, protein nitration and lipid peroxidation were measured using commercial kits according to the manufacturer's recommendations. A Sircol™ collagen assay kit was obtained from Biocolor Life Sciences Assays, a protein nitration assay kit was obtained from Abcam, and other assay kits were obtained from PeproTech Asia.
(§5) Control and experimental groups contained 10 mice each. The effects of the nitroxides were investigated by feeding the mice ad libitum a diet of nitroxide-containing chow (1 weight percent) during both ovalbumin (OVA)-induced sensitization and challenging periods (days −2-19), during the sensitization period (days −2-11) or challenge period (days 13-19). Nitroxide-containing chow were prepared by dissolving 500 grams chow in a minimum volume of water containing 5 grams nitroxide and 5 grams commercial chicken soup powder, preparing the chow and drying it at 37° C. (animals were reluctant to eat nitroxide-containing chow until chicken soup powder was added).
3-CP was also administered using 3 daily intraperitoneal (IP) injections (200 μl, 0.15 M, ˜300 mg/kg) 0.5 hour prior to the challenge with OVA aerosol, or by nasal instillation (50 μl, 0.3 M, ˜150 mg/kg) twice a day 0.5 hour prior to the challenge with OVA aerosol and 6 hours later without exceeding its maximally tolerated dose, which has been previously established to be 300-500 mg/kg. Both 3-CP and TPL were non-toxic when administered orally or via IP injection to untreated OVA-challenged mice for 22 days. […]

[3] = Nitroxide concentration measurement by EPR in mouse blood and tissue; type: in vivo; conditions: mice fed chow with 0.7 weight percent 3-CPT, FIG. 12
Water-solubility = conditions: compared with 3-CP, data not shown
IL-13 = IL-13 level in OVA asthma model; type: in vivo, BALB/c mice; conditions: OVA IP-Dex: dexamethasone intraperitoneal (1 mg/kg); lung tissue (table title)
Method: as §1, §2, §4
The efficacy of oral administration of 3-CP (1 weight percent in chow) during the sensitization period and/or challenge period was then compared to IP injection (˜300 mg/kg, 0.5 hour before the OVA challenge) or intranasal instillation (˜150 mg/kg, 0.5 hour before the OVA and 6 hours later) of 3-CP, as well as to dexamethasone treatment (1 mg/kg, 3 daily IP injections, 0.5 hour prior to the challenge with OVA aerosol).
In order to assess the effect of 3-CP on inflammatory signaling pathways, […] to procedures described hereinabove, upon oral, intranasal or IP administration of 3-CP.

[4] = Nitroxide concentration measurement by EPR in mouse blood and tissue; type: in vivo; conditions: mice
Method: Electron paramagnetic resonance (EPR) spectroscopy was used to determine residual levels of nitroxide in mouse tissue. Blood samples or tissue samples were diluted with 0.5 ml phosphate buffer (40 mM, pH 7.4) or water, inserted into a flexible capillary placed in a quartz tube installed within the EPR spectrometer cavity and assayed for residual nitroxide. A similar procedure was used to determine the residual nitroxide in tissue homogenates of various organs, which were corrected for blood contamination spectrophotometrically by following the absorption of oxyhemoglobin at 400-600 nm. Measured EPR signals were compared to those of a nitroxide standard solution.
In order to determine total hydroxylamine and nitroxide concentrations, 2 mM K3Fe(CN)6 was added to samples in order to oxidize hydroxylamines to the respective nitroxide, and the nitroxide level was determined by EPR spectroscopy as described hereinabove.
as §5
(§6) 3-CP was also administered using 3 daily intraperitoneal (IP) injections (200 μl, 0.15 M, ˜300 mg/kg) 0.5 hour prior to the challenge with OVA aerosol, or by nasal instillation (50 μl, 0.3 M, ˜150 mg/kg) twice a day 0.5 hour prior to the challenge with OVA aerosol and 6 hours later without exceeding its maximally tolerated dose, which has been previously established to be 300-500 mg/kg. Both 3-CP and TPL were non-toxic when administered orally or via IP injection to untreated OVA-challenged mice for 22 days.

[5] = Toxicity / maximally tolerated dose in mice; type: in vivo; conditions: administered orally or via IP injection to untreated OVA-challenged mice for 22 days
Method: as §6

For `CC1(C)C=C(C(N)=O)C(C)(C)N1[O]` [3-CPT, 3-carbamoyl-2,2,5,5-tetramethyl-3-pyrrolin-1-oxyl], which “effect on methacholine-induced lung resistance” value ([1]; 0.7 weight percent 3-CPT in chow, FIG. 14) is on record?
Its value is “reduced methacholine-induced lung resistance, albeit to a considerably lesser degree than 3-CP”.

What about the “inhibiting increases in inflammatory cell levels (especially eosinophil levels) in asthmatic animals” value ([2]; 3-CPT oral (0.7 weight percent in chow) or intraperitoneal (300 mg/kg), FIG. 13) of the same molecule?
The value was “effective”.

What about the “effect on OVA-induced increase of total cell counts in BAL fluid” value ([2]; oral, 0.7 weight percent 3-CPT in chow, FIG. 13) of the same molecule?
The value was “effective in reversing OVA-induced increase of total cell counts”.

What about the “reduction to the respective hydroxylamine in the blood” value [3] of the same molecule?
The value was “most of the 3-CPT in the blood was reduced to the respective hydroxylamine”.

And the water-solubility (Water-solubility)?
Its water-solubility is “lower water-solubility than 3-CP”.

Which IL-13 level (IL-13) does the source give for `C[C@@H]1C[C@H]2[C@@H]3CCC4=CC(=O)C=C[C@]4(C)[C@@]3(F)[C@@H](O)C[C@]2(C)[C@@]1(O)C(=O)CO` [dexamethasone, Dexamethasone, reference compound] here?
Its IL-13 level is 1.80 ng/mg.

With `CC1(C)CC(O)CC(C)(C)N1[O]` [TPL, 4-Hydroxy-2,2,6,6-tetramethyl-piperidin-1-oxyl, reference compound] as the molecule, how does the “residual concentration of the respective hydroxylamine compared with the nitroxide” value ([4]; data not shown) read?
Its value is “higher than those of the therapeutically active nitroxide free radical”.

What about the “residual concentration of nitroxide in blood” value ([4]; oral administration (1 weight percent nitroxide in chow), FIG. 1) of the same molecule?
The value was “detectable levels”.

What about the toxicity [5] of the same molecule?
The toxicity was “non-toxic”.

And the “effect on methacholine-induced increase in lung resistance” value ([1]; 1 weight percent in chow, FIG. 3)?
Its value is “suppressed methacholine-induced increase in lung resistance”.

And the “effect on OVA-induced increase in total inflammatory cell and eosinophil counts in BAL fluid” value ([2]; oral, 1 weight percent in chow, FIG. 4)?
Its value is “attenuated the increase in total inflammatory cell counts and eosinophil counts”.
